This is an account of results in patent US20120035265A1, “COMPOSITIONS, METHODS, AND DEVICES FOR THE TREATMENT OF DYSMENORRHEA” (MediciNova, Inc., priority 2010, published 2012).

Structures can show the parent of a compound that is named as a salt.

The subject of assay [1] is uterine activity of anesthetized pregnant rats. Briefly: Uterine motility of anesthetized pregnant rats (balloon method). In kind it is in vivo, rat. As to conditions: uterine motility, intravenous cumulative dosing every 15 minutes, urethane-anesthetized pregnant rats. The protocol:
Rats were anesthetized with urethane, and experiments were conducted based on balloon method. Uterine activity and mean blood pressure of dam were led to a pressure amplifier via a pressure transducer. As for heart rate, pulse waves were led to tachometer. Recti-graphs were used for recording. The test substance, control substance, or positive control substance was administered intravenously and cumulatively every 15 minutes, while doses were increased gradually.

Assay [2] deals with uterine muscles isolated from pregnant rabbits. Nature of the assay: Spontaneous contractions of isolated uterine muscles of pregnant rabbits (organ bath). In kind it is cell-based, rabbit. To be noted: spontaneous contractions, pregnant rabbit uterine muscles; for EC50: Oryctolagus cuniculus, read-out: pD2 values (converted). The protocol: Uterine muscles of pregnant rabbits were isolated, and experiments were conducted based on organ-bath method. After specimens of uterine muscles were suspended and spontaneous contractions was stabilized, the test substance, control substance or positive control substance was administered every 10 min, while doses were increased gradually. Efficacy of drugs was evaluated by comparing the sum of uterine contraction for 10 min before and after administration of drugs, defining the former as 100%.

Assay [3] has the same test system. Briefly: Oxytocin-induced contractions of isolated uterine muscles of pregnant rabbits (organ bath). In kind it is cell-based, rabbit. To be noted: oxytocin (1 mU/mL)-induced contractions, pregnant rabbit uterine muscles; for EC50: Oryctolagus cuniculus, read-out: pD2 values (converted). The method, then: Uterine muscles of pregnant rabbits were isolated, and experiments were conducted based on organ-bath method. After specimens of uterine muscles were suspended and oxytocin (1 mU/mL)-induced contractions was stabilized, the test substance, control substance or positive control substance was administered every 10 min, while doses were increased gradually. Efficacy of drugs was evaluated by comparing the sum of uterine contraction for 10 min before and after administration of drugs, defining the former as 100%.

In assay [4] the test system is uterine muscle isolated from pregnant rats. Nature of the assay: Spontaneous contractions of uterine muscle isolated from pregnant rats (organ bath). In kind it is cell-based. As to conditions: pregnant rat uterine muscle, mean ± standard error, 10 samples. The method, then:
The experimental operation of this study was as reported by T. Kawarabayashi et al.^1 After each SD-strain rat on Day 21 of pregnancy were exsanguinated to death, the uterus was isolated to prepare up to 8 myometrial strips (about 4 mm×10 mm) in the direction of the longitudinal muscle, with the adhesion to the placenta being avoided.
Each myometrial strip was suspended in an organ bath containing 10 mL of a Locke-Ringer solution at 37° C. (aerated with 95% O2+5% CO2 gas) with a load of about 1.0 g. After the amplitude and frequency of the muscular spontaneous contractions became stable, distilled water was added. Five minutes later, the test, control, or positive control substance was added cumulatively with intervals of 5 minutes. The myometrial contractile force was delivered to a strain pressure amplifier through a force displacement transducer and recorded on a Rectigraph.
Considering the sum of the uterine contraction during 5 minutes after the addition of distilled water as 100%, the response rate to each concentration of the test, control, or positive control substance was calculated from the sum of the uterine contraction after each was added. Variable points (peaks) with amplitude (tension) of 0.2 g or lower were excluded from analysis. Samples showing any of the following events were not used for the study or excluded from analysis.
Microsoft® Excel 2000 (Microsoft Corp.) was used to sum up and analyze data and prepare tables and figures. Using a concentration-response curve obtained for each sample (X axis: log value of the concentration of the drug added, Y axis: response rate), a negative log value (pD2) of the concentration that inhibited the uterine contraction by 50% (EC50) was calculated from a straight line that connects the 2 concentrations above and below 50%, and converted to EC50.

For assay [5] the test system is unchanged. Briefly: PG F2α-induced contraction of uterine muscle isolated from pregnant rats. Type of assay: cell-based, rat. As to conditions: contraction induced with 5 μg/mL of PG F2α, mean ± standard error of 10 samples. The protocol:
(§1) After SD-strain rats on Day 17 of pregnancy were exsanguinated to death, the uterus was isolated to prepare up to 8 myometrial strips (about 4 mm×10 mm) per animal in the direction of the longitudinal muscle while avoiding the adhesion to the placenta. Each strip was suspended in an organ bath containing 10 mL of a modified Locke-Ringer solution at […] (aerated with 95% O2+5% CO2 gas) with a load of about 1.0 g. After the suspended sample became stable for static tension, 5 μg/mL of PG F2α or 1 mU/mL of oxytocin was added to induce contraction. After the sample was allowed to stand for at least 30 minutes to confirm stable rhythmic contraction for frequency and amplitude, the test, control, or positive control substance solution was added cumulatively at intervals of 5 minutes. After the treatment was completed, 1×10^−5 mol/L of forskolin was added to obtain maximal relaxation. The contractile force of the uterine sample was delivered via a force displacement transducer to a strain pressure amplifier and recorded on a Rectigraph.
(§2) Considering the sum of the uterine contraction for 5 minutes before treatment as 100%, the response rate to each concentration of the test, control, or positive control substance solution was calculated from the sum of uterine contraction after treatment for both PG F2α and oxytocin induced contraction. Then, the response rates obtained were used to prepare a concentration-response curve for each sample. The maximum relaxation obtained by adding forskolin was considered as a baseline. Variable points (peaks) with amplitude (tension) of […] or lower were excluded from analysis. Samples showing any of the following events were not used for the study or excluded from analysis.
(§3) Microsoft® Excel 2000 (Microsoft Corp.) was used to sum up and calculate data and prepare tables and figures. Using a concentration-response curve prepared for each sample (X axis: log value of the concentration of the substance added, Y axis: response rate), a negative log value (pEC50) of the concentration that inhibited the uterine contraction by 50% (EC50) was calculated from a straight line connecting the 2 concentrations just above and below 50%, and then converted to EC50 (unit: mol/L).

Assay [6] shares this test system. Briefly: Oxytocin-induced contraction of uterine muscle isolated from pregnant rats. As to conditions: contraction induced with 1 mU/mL of oxytocin, mean ± standard error of 10 samples. Type of assay: cell-based, rat. The protocol:
as §1, §2, §3

Assay [7] has the same test system. Nature of the assay: Interaction of MN-221 and β-adrenoceptor antagonists on spontaneous contraction of uterine muscle isolated from pregnant rats (Schild regression). In kind it is cell-based, rat. The protocol: The experimental operation of this study was as reported by T. Kawarabayashi et al.^4. After each SD-strain rat on Day 21 of pregnancy was exsanguinated to death, the uterus was isolated to prepare 8 myometrial samples (about 4 mm×10 mm) in the direction of the longitudinal muscle, with the adhesion to the placenta being avoided. Each myometrial sample was suspended with a load of about 1.0 g in an organ bath containing 10 mL of the Locke-Ringer solution at 37° C. […] After the suspended samples became stable for the amplitude and frequency of spontaneous contraction, each antagonist or distilled water was added to the bath to pretreat them for about 15 minutes. […] The contractile force of each sample was outputted through a force displacement transducer to a strain pressure amplifier and recorded with a rectigraph.
Any variable point (peak) with amplitude (tension) of 0.2 g or lower was excluded from analysis. Samples meeting any of the following criteria were rejected or removed from analysis.
Microsoft® Excel 2000 (Microsoft Corp.) was used for summing up or calculating data and preparing figures and tables. […] This EC50 value was used to calculate the concentration ratio (CR) of EC50 when an antagonist was added (for each sample) to that when no antagonist was added (mean value of the whole control group) and the logarithmic value of CR-1 (log [CR-1]).
Then, the added concentration of the antagonist was plotted on the X axis (logarithmic value) and log(CR-1) on the Y axis (Schild plot) to calculate the value of the X-axis intercept (pA2) and slope of the line using linear approximation (Schild regression^5). The slope was statistically compared with a slope of 1 (paired t-test; a probability level of less than 5% was considered significant). […] The mean and standard error were calculated for each data point obtained and indicated to two decimal places (or in 3 significant digit).

The mark [8] stands for this setting: Rattus norvegicus, read-out: EC50.
The mark [9] stands for this setting: Rattus norvegicus, read-out: pEC50 (converted).

In assay [1], `CC(C)(C)NCC(O)c1cc(O)cc(O)c1` (stereo not shown) [Terbutaline sulfate, terbutaline sulfate] returned an ED30 values of 0.72 µg/kg/min. The EC50 is 89.1 nM in assay [2] and 40.7 nM in assay [3].

Take `CC(NCCc1ccc(O)cc1)C(O)c1ccc(O)cc1` (racemic) [Ritodrine hydrochloride, (±)-erythro-1-(p-hydroxyphenyl)-2-[2-(p-hydroxyphenyl)ethylamino]-1-propanol hydrochloride]: the EC50 in assay [4] (read-out: EC50) is 39.8 ± 13.3 nM; in assay [4] (read-out: pD2 (converted)), 25.7 nM; in assay [5] (setting [8]) it was 3430 ± 720 nM; in assay [5] (setting [9]) it was 2630 nM; in assay [6] (setting [8]), 133 ± 16.8 nM; in assay [6] (setting [9]) it was 120 nM. Besides, the figures for the EC50 in assay [2] and in assay [3] were 135 nM and 77.6 nM, respectively. Besides, the ED30 values in assay [1] worked out at 51.45 µg/kg/min.

With `Cn1cc(C(F)(F)F)nc1-c1ccc(OCC(O)CNCCOc2ccc(O)c(C(N)=O)c2)cc1` (stereo not shown) [CGP 20712A, reference compound], in assay [7] (at a concentration of up to 1×10^−8 mol/L), the “antagonistic effect on the effect of MN-221” value was “no evident antagonistic effect”.

isoproterenol bitartrate returned a pD2 in assay [4] of 9.52±0.13. The EC50 was 0.42 ± 0.1 nM in assay [4] (read-out: EC50), 5.1 ± 0.633 nM in assay [5] (read-out: EC50) and 0.556 ± 0.0412 nM in assay [6] (read-out: EC50). The pEC50 came out at 8.32±0.05 in assay [5] and 9.27±0.03 in assay [6]. The pD2 values in assay [2] stood at 8.69 ± 0.17; in assay [3] it was 8.53 ± 0.21.

Regarding `CC(C)(C)NC[C@H](O)c1ccc(O)cc1Cl.O=C(O)C(O)C(O)C(=O)O` [HSR-81, meluadrine tartrate], the ED30 values in assay [1] turned out to be 0.56 µg/kg/min. Besides, the pD2 values in assay [2] is recorded as 8.21 ± 0.26; in assay [3], 8.12 ± 0.21.

As for `CCc1ccccc1OC[C@@H](O)CN[C@H]1CCCc2ccccc21` [SR 59230A, reference compound], the “antagonistic effect on the effect of MN-221” value in assay [7] (at a concentration of up to 3×10^−8 mol/L) was “no evident antagonistic effect”.

By pEC50 is commonly meant the negative decadic logarithm of the EC50, by convention in mol/L. Low values mean a large EC50, high ones a small EC50.
